The record followed here is the OPERA property sets (Mansouri et al. 2018).

Converted amounts (≈) assume the structure as drawn.

`CCCCCCCCCC(C)=O` showed a logP of 4.09.

`CN(C(=O)C(Cl)Cl)c1ccc(OC(=O)c2ccccc2)cc1` had a logP of 2.56. As to `Cc1cc(Cc2ccc(Cl)cc2Cl)c(Cl)cc1Cl`, the logP stood at 7.43. `N#CCCC#N` came in with a logP of -0.99.

Consider `O=c1[nH]c2ccccc2n1CCCN1CCC(n2c(=O)[nH]c3cc(Cl)ccc32)CC1`, for which the logP was 3.9.

In turn, `CN(CCO)C(=O)COC(=O)c1ccccc1O` gave a logP of 0.86. The same measure, in the same setting: the result for `CCCCCCCCCCOC(=O)c1ccccc1C(=O)OCCCCCCCCCC` reads 9.05. Still for that read-out and setting: the result for `CC(=NNC(N)=Nc1ccccc1)c1ccccc1` reads 2.18. `Cc1cc(=O)oc2cc(C3OC(C(=O)O)C(O)C(O)C3O)ccc12` (configuration not stated) returned a logP of -0.39.

`CCn1cc(C(=O)O)c(=O)c2cc(F)c(N3CCNC(C)C3)c(F)c21` (configuration not stated) yielded a logP of -0.3. Compound `Cn1cccc(O)c1=O` had a logP of -0.4.

`C[Si](C)(C)O[Si](C)(C)O[Si](C)(C)C`: the logP was determined as 6.6. Still for that read-out and setting: the result for `N#CCCN(N)c1nc2cc(C(F)(F)F)ccc2o1` reads 1.72. The compound `c1ccc2c(c1)ccc1[nH]c3ccc4ccccc4c3c12` showed a solubility of 0.236 µM (≈ 0.063 µg/mL). For the compound `O=C(Nc1ccc(O)cc1)C(Cl)Cl`, the logP is 1.6. Regarding `CC(C)Nc1nc(N)nc(Cl)n1`, the logP came out at 1.51 and the solubility came to 1970 µM (≈ 369 µg/mL). The compound `CCOC1OC2OC3(C)CCC4C(CO)CCC(C1C)C24OO3` (configuration not stated) displayed a logP of 2.08. Same read-out and setting: the result for `Oc1ccc(C2CNCCc3c2cc(O)c(O)c3Cl)cc1` (configuration not stated) reads 2.39; that for `C=CCC1(CC(C)O)C(=O)NC(=O)NC1=O` (configuration not stated), -0.05; that for `CN1C(=O)CC(=O)N(c2ccccc2)c2cc(Cl)ccc21`, 2.12. The compound `C=CC(=O)OCCOC` came in with a logP of 0.56. The same measure, in the same setting: the result for `Cn1cnc([N+](=O)[O-])c1I` reads 1. The compound `Cc1cc(C)nc(NS(=O)(=O)c2ccc(N)cc2)n1` had a log partition coefficient (logP) of 0.19. Still for that read-out and setting: the result for `CCCSc1ccc2[nH]c(NC(=O)OC)nc2c1` reads 3.07; that for `CN(C)C(=S)N(C)C`, 0.49.

As for `CCCCn1cccc(O)c1=O`, the logP amounted to 1.18. Same read-out and setting: the result for `CCCCOCCOCCCC` reads 2.48.

As for `CCCOc1ccc([N+](=O)[O-])cc1NC(C)=O`, the logP came to 1.6.

`CCCCN(C)N=O` gave a logP of 1.08. The compound `CCCCCCOC(=O)C1=C=CC(=O)NC(=O)N1` yielded a logP of 1.76. The same measure, in the same setting: the result for `Nc1nc(=O)n([C@H]2CC[C@@H](CO)O2)cc1Br` reads -0.5; that for `Cc1cc(Cl)ccc1OC(C)C(=O)O` (configuration not stated), 3.13; that for `Cc1cc(O)cc(C)c1Cl`, 3.27. `N=C(N)NN=Cc1ccc([N+](=O)[O-])cc1`: the logP was found to be 0.87. Still for that read-out and setting: the result for `C[C@H](CS)C(=O)N1CCC[C@H]1C(=O)O` reads 0.34; that for `O=C(Nc1ccc(Cl)cc1)c1cccc([N+](=O)[O-])c1O`, 2.16; that for `CC(=O)CCC(C)C`, 1.88.

Turning to `CCCCCCCCOC(=O)c1ccccc1C(=O)OCCCCCCCC`, the logP is 8.1.

`C[N+](C)(C)CCCl.[Cl-]` had a logP of -3.8. The same measure, in the same setting: the result for `Cc1ccc2ccc3ccccc3c2c1` reads 5.15. For `CN(C)c1ccc(N=C=S)cc1`, the logP amounted to 3.96. Still for that read-out and setting: the result for `COc1cc(C(=O)NCc2ccc(OCCN(C)C)cc2)cc(OC)c1OC` reads 2.29; that for `NC(=O)c1ccccc1NCC(O)CO` (configuration not stated), -0.8. The compound `O=C(Nc1ccccc1)n1cc(F)c(=O)[nH]c1=O` came in with a logP of 1.5. On the same count and under the same terms, the result for `Cc1nc2c(N)ncnc2n1C1OC(CO)CC1F` (configuration not stated) reads 0.1. In the case of `Nc1ccc([N+](=O)[O-])cc1Cl`, the logP was found to be 2.14.

`Fc1ccc(Cn2cncn2)cc1` yielded a logP of 1.1. Still for that read-out and setting: the result for `O=c1[nH][nH]c(=O)c2ccccc12` reads 0.11; that for `CCCCC(=O)OCC1OC(n2cnc3c(OC)ncnc32)C(OC(=O)CCCC)C1O` (configuration not stated), 3.58. The same measure, in the same setting: the result for `CC(C)CC(=O)Oc1ccccc1` reads 3.18; that for `COC(=O)C1CC(=O)N(C)C1` (configuration not stated), -0.74. On the same count and under the same terms, the result for `OC(CNC1COCCC1Br)Cn1ccnc1` (configuration not stated) reads -0.17; that for `O=C(Nc1ccc(Cl)cc1)c1cc([N+](=O)[O-])ccc1O`, 2.54; that for `Cc1ccccc1CCN`, 1.6. For the compound `CCN(CC)P(=O)(N(C)C)N(C)C`, the logP worked out at 0.66. The same measure, in the same setting: the result for `CC(C)(C)C1=CC(=O)C=C(C(C)(C)C)C1=O` reads 4.42. Take `CC(=O)c1c(C)c([N+](=O)[O-])c(C(C)(C)C)c([N+](=O)[O-])c1C`: the logP was found to be 4.3 and the solubility amounted to 6.46 µM (≈ 1.9 µg/mL). On to `N#Cc1c(Cl)c(Cl)c(Cl)c(C#N)c1Cl`, for which the logP is 3.05. On the same count and under the same terms, the result for `COC(=O)c1ccccc1C(=O)OC` reads 1.6; that for `Cc1ccc(C(=O)CS(=O)(=O)c2ccccc2)cc1`, 2.7. On the same count and under the same terms, the result for `ClC1=C(Cl)C2(Cl)C(Cl)(Cl)C3CC(Cl)C1C3C2(Cl)Cl` (configuration not stated) reads 6.09; that for `Cc1ccc(C)c(NCc2cnc3nc(N)nc(N)c3c2C)c1`, 2.29. Same read-out and setting: the result for `CCC/N=C(N)/N=C(\N)Nc1ccc(Cl)cc1` reads 2.63; that for `C[Si](C)(C)O[Si](C)(C)O[Si](C)(C)O[Si](C)(C)C`, 8.21; that for `O=C1CCCC1`, 0.38.
